For the assay, the system named is MV-4-11 cells. Kind of assay: Cell Viability Assay in MV-4-11 Cells. The settings on record: Homo sapiens, MV4-11, 72 h, MV-4-11 cells, 72 h, Cell-Titer Glo; read-out: IC50. The assay is classed as cell-based. Summed up:
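MV-4-11 cells at 7,000/well in IMDM with 10% FBS, exposed to compound for 72 h. Viability by CellTiter-Glo luminescence, normalized to DMSO as 100%, fitted with a four-parameter curve.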
Turning to `Cc1cccc2ccnc(N(C(=O)c3ccc(Nc4nccc(N5CCOCC5)n4)cc3F)[C@@H]3CCCNC3)c12` [Example 408, (R)-2-fluoro-N-(8-methylisoquinolin-1-yl)-4-((4-morpholinopyrimidin-2-yl)amino)-N-(piperidin-3-yl)benzamide], the half-maximal inhibitory concentration (IC50) – broadly, the concentration needed to halve the response being measured – stood at 5.3 nM.
Next, `Cc1cccc2ccnc(N(C(=O)c3ccc(Nc4ncc(F)cn4)cc3F)[C@@H]3CCCNC3)c12` [Example 409, (R)-2-fluoro-4-((5-fluoropyrimidin-2-yl)amino)-N-(8-methylisoquinolin-1-yl)-N-(piperidin-3-yl)benzamide]: 54 nM; `Cc1cccc2ccnc(N(C(=O)c3ccc(Nc4ncc(N)cn4)cc3F)[C@@H]3CCCNC3)c12` [Example 410, (R)-4-((5-aminopyrimidin-2-yl)amino)-2-fluoro-N-(8-methylisoquinolin-1-yl)-N-(piperidin-3-yl)benzamide]: 190 nM; `O=C(c1ccc(-n2nnc3cccnc32)cc1F)N(c1nccc2sc(C#Cc3ccncc3)cc12)[C@@H]1CCCNC1` [Example 411, 2-fluoro-N-[(3R)-3-piperidyl]-N-[2-[2-(4-pyridyl)ethynyl]thieno[3,2-c]pyridin-4-yl]-4-(triazolo[4,5-b]pyridin-3-yl)benzamide]: 390 nM.
As to `Nc1ccc(-c2cc3c(N(C(=O)c4ccc(-n5nnc6cccnc65)cc4F)[C@@H]4CCCNC4)nccc3s2)cc1` [Example 412, N-[2-(4-aminophenyl)thieno[3,2-c]pyridin-4-yl]-2-fluoro-N-[(3R)-3-piperidyl]-4-(triazolo[4,5-b]pyridin-3-yl)benzamide], the IC50 turned out to be 63 nM.
Next, `NS(=O)(=O)c1ccc(-c2cc3c(N(C(=O)c4ccc(-n5nnc6cccnc65)cc4F)[C@@H]4CCCNC4)nccc3s2)cc1` [Example 414, 2-fluoro-N-[(3R)-3-piperidyl]-N-[2-(4-sulfamoylphenyl)thieno[3,2-c]pyridin-4-yl]-4-(triazolo[4,5-b]pyridin-3-yl)benzamide]: 220 nM.
`CC(C)Cn1cc(-c2cc3c(N(C(=O)c4ccc(-n5nnc6cccnc65)cc4F)[C@@H]4CCCNC4)nccc3s2)nn1` [Example 415, 2-fluoro-N-[2-(1-isobutyltriazol-4-yl)thieno[3,2-c]pyridin-4-yl]-N-[(3R)-3-piperidyl]-4-(triazolo[4,5-b]pyridin-3-yl)benzamide]: the concentration for half-maximal inhibition (IC50) was 1200 nM.
Take `O=C(c1ccc(-n2nnc3cccnc32)cc1F)N(c1nccc2sc(-c3cscn3)cc12)[C@@H]1CCCNC1` [Example 416, 2-fluoro-N-[(3R)-3-piperidyl]-N-(2-thiazol-4-ylthieno[3,2-c]pyridin-4-yl)-4-(triazolo[4,5-b]pyridin-3-yl)benzamide]: the concentration for half-maximal inhibition (IC50) came out at 180 nM.
With `O=C(c1ccc(-n2nnc3cccnc32)cc1F)N(c1nccc2sc(-c3nccs3)cc12)[C@@H]1CCCNC1` [Example 417, 2-fluoro-N-[(3R)-3-piperidyl]-N-(2-thiazol-2-ylthieno[3,2-c]pyridin-4-yl)-4-(triazolo[4,5-b]pyridin-3-yl)benzamide], the IC50 worked out at 390 nM.
As for `O=C(c1ccc(-n2nnc3cccnc32)cc1F)N(c1nccc2sc(-c3ccn(CCO)n3)cc12)[C@@H]1CCCNC1` [Example 418, (R)-4-(3H-[1,2,3]triazolo[4,5-b]pyridin-3-yl)-2-fluoro-N-(2-(1-(2-hydroxyethyl)-1H-pyrazol-3-yl)thieno[3,2-c]pyridin-4-yl)-N-(piperidin-3-yl)benzamide], the figure is 360 nM; as for `CS(=O)(=O)c1cccc(-c2cc3c(N(C(=O)c4ccc(-n5nnc6cccnc65)cc4F)[C@@H]4CCCNC4)nccc3s2)c1` [Example 419, 2-fluoro-N-[2-(3-methylsulfonylphenyl)thieno[3,2-c]pyridin-4-yl]-N-[(3R)-3-piperidyl]-4-(triazolo[4,5-b]pyridin-3-yl)benzamide], 200 nM.
Turning to `Nc1noc2ccc(-c3cc4c(N(C(=O)c5ccc(-n6nnc7cccnc76)cc5F)[C@@H]5CCCNC5)nccc4s3)cc12` [Example 420, N-[2-(3-amino-1,2-benzoxazol-5-yl)thieno[3,2-c]pyridin-4-yl]-2-fluoro-N-[(3R)-3-piperidyl]-4-(triazolo[4,5-b]pyridin-3-yl)benzamide], the 50% inhibitory concentration (IC50) turned out to be 330 nM.
Regarding `Cc1cc(-c2cccnc2)cc2ccnc(N(C(=O)c3ccc(-n4nnc5cccnc54)cc3F)[C@@H]3CCCNC3)c12` [Example 421, (R)-4-(3H-[1,2,3]triazolo[4,5-b]pyridin-3-yl)-2-fluoro-N-(8-methyl-6-(pyridin-3-yl)isoquinolin-1-yl)-N-(piperidin-3-yl)benzamide], the IC50 turned out to be 16 nM.
Consider `Cc1cc(-c2cn[nH]c2)cc2ccnc(N(C(=O)c3ccc(-n4nnc5cccnc54)cc3F)[C@@H]3CCCNC3)c12` [Example 422, (R)-4-(3H-[1,2,3]triazolo[4,5-b]pyridin-3-yl)-2-fluoro-N-(8-methyl-6-(1H-pyrazol-4-yl)isoquinolin-1-yl)-N-(piperidin-3-yl)benzamide], for which the 50% inhibitory concentration (IC50) came out at 6.6 nM.
Next, `O=C(c1ccc(-n2nnc3cccnc32)cc1F)N(c1nccc2sc(-c3cccc(CO)c3)cc12)[C@@H]1CCCNC1` [Example 424, 2-fluoro-N-[2-[3-(hydroxymethyl)phenyl]thieno[3,2-c]pyridin-4-yl]-N-[(3R)-3-piperidyl]-4-(triazolo[4,5-b]pyridin-3-yl)benzamide]: 110 nM; `N#Cc1ccc(-c2cc3c(N(C(=O)c4ccc(-n5nnc6cccnc65)cc4F)[C@@H]4CCCNC4)nccc3s2)s1` [Example 425, N-[2-(5-cyano-2-thienyl)thieno[3,2-c]pyridin-4-yl]-2-fluoro-N-[(3R)-3-piperidyl]-4-(triazolo[4,5-b]pyridin-3-yl)benzamide]: 230 nM; `O=C(c1ccc(-n2nnc3cccnc32)cc1F)N(c1nccc2sc(-c3ccc(CO)s3)cc12)[C@@H]1CCCNC1` [Example 426, 2-fluoro-N-[2-[5-(hydroxymethyl)-2-thienyl]thieno [3,2-c]pyridin-4-yl]-N-[(3R)-3-piperidyl]-4-(triazolo [4,5-b]pyridin-3-yl) benzamide]: 160 nM.
For the molecule `O=C(c1ccc(-n2nnc3cccnc32)cc1F)N(c1nccc2sc(-c3csc(CO)n3)cc12)[C@@H]1CCCNC1` [Example 427, 2-fluoro-N-[2-[2-(hydroxymethyl)thiazol-4-yl]thieno[3,2-c]pyridin-4-yl]-N-[(3R)-3-piperidyl]-4-(triazolo[4,5-b]pyridin-3-yl)benzamide], the IC50 was 210 nM.
On to `O=C(c1ccc(-n2nnc3cccnc32)cc1F)N(c1nccc2sc(-c3ccccc3O)cc12)[C@@H]1CCCNC1` [Example 428, 2-fluoro-N-[2-(2-hydroxyphenyl)thieno[3,2-c]pyridin-4-yl]-N-[(3R)-3-piperidyl]-4-(triazolo[4,5-b]pyridin-3-yl)benzamide], for which the concentration for half-maximal inhibition (IC50) was 250 nM.
Next, `COC(=O)c1nc(-c2cc3c(N(C(=O)c4ccc(-n5nnc6cccnc65)cc4F)[C@@H]4CCCNC4)nccc3s2)cs1` [Example 429, methyl 4-[4-[[2-fluoro-4-(triazolo[4,5-b]pyridin-3-yl)benzoyl]-[(3R)-3-piperidyl]amino]thieno[3,2-c]pyridin-2-yl]thiazole-2-carboxylate]: 1000 nM.

The values are drawn from patent US20240400555A1 (Initial Therapeutics, Inc., priority 2023, published 2024).
